Measurements reported in PubChem BioAssay AID264 (DTP/NCI, 2004).
“And” between values parts separate entries of the source, which are not always exact repeats. Identical values can stand only once. Records with an inconclusive call do not appear.

Tested on: nude mice, LX-1 lung xenograft intrarenal, tumor weight T/C
Assay: NCI In Vivo Anticancer Drug Screen. Data for tumor model Human Lung LX-1 Xenograft (intrarenal inoculation) in NU/NU Swiss (nude) mice
Settings: endpoint: mean tumor weight change, higher = larger tumour
Outline: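 Activity was scored by measuring tumors in treated animals and in vehicle controls, then reporting the treated result as a fraction of the control result.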

[1] = dose: 300.0 mg/kg/injection, schedule: Q04DX003 (sc), vehicle: saline with Tween-80
[2] = dose: 600.0 mg/kg/injection, schedule: Q04DX003 (sc), vehicle: saline with Tween-80
[3] = dose: 1200.0 mg/kg/injection, schedule: Q04DX003 (sc), vehicle: saline with Tween-80
[4] = dose: 2400.0 mg/kg/injection, schedule: Q04DX003 (sc), vehicle: saline with Tween-80
[5] = dose: 150.0 mg/kg/injection, schedule: Q04DX003 (sc), vehicle: Klucel (hydroxypropylcellulose) (HPC)
[6] = dose: 300.0 mg/kg/injection, schedule: Q04DX003 (sc), vehicle: Klucel (hydroxypropylcellulose) (HPC)
[7] = dose: 600.0 mg/kg/injection, schedule: Q04DX003 (sc), vehicle: Klucel (hydroxypropylcellulose) (HPC)
[8] = dose: 300.0 mg/kg/injection, schedule: Q04DX003 (sc), vehicle: saline
[9] = dose: 100.0 mg/kg/injection, schedule: Q01DX010 (sc), vehicle: saline with Tween-80
[10] = dose: 200.0 mg/kg/injection, schedule: Q01DX010 (sc), vehicle: saline with Tween-80
[11] = dose: 400.0 mg/kg/injection, schedule: Q01DX010 (sc), vehicle: saline with Tween-80
[12] = dose: 1200.0 mg/kg/injection, schedule: Q04DX003 (sc), vehicle: Klucel (hydroxypropylcellulose) (HPC)

O=C1NC2(CCCCC2)C(=O)N1CCN(CCCl)CCCl
T/C (dose: 4.0 mg/kg/injection, schedule: Q01DX010 (sc), vehicle: suspension in saline): 524 % of control
T/C (dose: 6.0 mg/kg/injection, schedule: Q01DX010 (sc), vehicle: saline): 85 % of control
T/C (dose: 6.0 mg/kg/injection, schedule: Q01DX010 (sc), vehicle: suspension in saline): 39 % of control and 58 % of control
T/C (dose: 8.0 mg/kg/injection, schedule: Q01DX010 (sc), vehicle: suspension in saline): 244 % of control
T/C (dose: 12.0 mg/kg/injection, schedule: Q01DX010 (sc), vehicle: saline): 31 % of control
T/C (dose: 16.0 mg/kg/injection, schedule: Q01DX010 (sc), vehicle: suspension in saline): 115 % of control
T/C (dose: 32.0 mg/kg/injection, schedule: Q01DX010 (sc), vehicle: suspension in saline): 63 % of control

CC1=CC2C(O)(CC(CO)=CC3C4C(C)(C)C4(OC(=O)c4ccccc4)C(OC(=O)c4ccccc4)C(C)C32O)C1=O (centres undefined)
T/C (dose: 1.25 mg/kg/injection, schedule: Q04DX003 (sc), vehicle: saline with Tween-80): 77 % of control
T/C (dose: 2.5 mg/kg/injection, schedule: Q04DX003 (sc), vehicle: saline with Tween-80): 73 % of control
T/C (dose: 5.0 mg/kg/injection, schedule: Q04DX003 (sc), vehicle: saline with Tween-80): 76 % of control
T/C (dose: 10.0 mg/kg/injection, schedule: Q04DX003 (sc), vehicle: saline with Tween-80): 43 % of control

CC(=O)OC1C(O)C(C)OC(OC2C(OC(=O)C3CCC4C(C3)OC3(CC(OC(=O)/C=C/c5ccccc5)C(C)CO3)C43CO3)OC(C)C(O)C2OC(C)=O)C1O (centres undefined)
T/C (dose: 15.0 mg/kg/injection, schedule: Q04DX003 (sc), vehicle: distilled water + Tween-80): 114 % of control
T/C (dose: 30.0 mg/kg/injection, schedule: Q04DX003 (sc), vehicle: distilled water + Tween-80): 121 % of control
T/C (dose: 60.0 mg/kg/injection, schedule: Q04DX003 (sc), vehicle: distilled water + Tween-80): 162 % of control

COc1ccc2c(c1)CCn1c(C)c(COC(=O)NC(C)C)c(COC(=O)NC(C)C)c1-2
T/C (dose: 37.5 mg/kg/injection, schedule: Q04DX003 (sc), vehicle: distilled water + Tween-80): 65 % of control
T/C (dose: 75.0 mg/kg/injection, schedule: Q04DX003 (sc), vehicle: distilled water + Tween-80): 64 % of control
T/C (dose: 150.0 mg/kg/injection, schedule: Q04DX003 (sc), vehicle: distilled water + Tween-80): 55 % of control
T/C (dose: 300.0 mg/kg/injection, schedule: Q04DX003 (sc), vehicle: distilled water + Tween-80): 63 % of control

COc1ccc(-c2csc(=[N+]3CCCCC3)s2)cc1
T/C (dose: 1.56 mg/kg/injection, schedule: Q04DX003 (sc), vehicle: water): 91 % of control
T/C (dose: 3.12 mg/kg/injection, schedule: Q04DX003 (sc), vehicle: water): 84 % of control
T/C (dose: 6.25 mg/kg/injection, schedule: Q04DX003 (sc), vehicle: water): 72 % of control
T/C (dose: 12.5 mg/kg/injection, schedule: Q04DX003 (sc), vehicle: water): 80 % of control

CN(C)CCOc1ccc2c(c1)C/C(=C/c1ncc([N+](=O)[O-])n1C)C2=O
T/C [1]: 93 % of control
T/C [2]: 82 % of control
T/C [3]: 44 % of control
T/C [4]: 61 % of control

C=Cc1cnc([N+](=O)[O-])n1C
T/C (dose: 75.0 mg/kg/injection, schedule: Q04DX003 (sc), vehicle: Klucel (hydroxypropylcellulose) (HPC)): 106 % of control
T/C [5]: 96 % of control
T/C [6]: 98 % of control
T/C [7]: 92 % of control

C[CH2][Sn]([CH2]C)([CH2]C(=O)OC)[CH2]C(=O)OC
T/C (dose: 6.25 mg/kg/injection, schedule: Q04DX003 (sc), vehicle: saline with Tween-80): 97 % of control
T/C (dose: 12.5 mg/kg/injection, schedule: Q04DX003 (sc), vehicle: saline with Tween-80): 92 % of control
T/C (dose: 25.0 mg/kg/injection, schedule: Q04DX003 (sc), vehicle: saline with Tween-80): 70 % of control

O=C(Nc1cccc(Cl)c1)ON1C(=O)C2C(C1=O)C1(Cl)C(Cl)C(Cl)C2(Cl)C1(Cl)Cl (centres undefined)
T/C [1]: 81 % of control
T/C [2]: 85 % of control
T/C [3]: 83 % of control

COC1C(O)C(C)OC(OC2C(Oc3cccc4c(O)c5c(=O)oc6ccc(C)c7c(=O)oc(c34)c5c67)OC(C)C(O)C2O)C1O (centres undefined)
T/C (dose: 50.0 mg/kg/injection, schedule: Q01DX010 (sc), vehicle: Klucel (hydroxypropylcellulose) (HPC)): 84 % of control
T/C (dose: 100.0 mg/kg/injection, schedule: Q01DX010 (sc), vehicle: Klucel (hydroxypropylcellulose) (HPC)): 63 % of control
T/C (dose: 200.0 mg/kg/injection, schedule: Q01DX010 (sc), vehicle: Klucel (hydroxypropylcellulose) (HPC)): 54 % of control
T/C (dose: 400.0 mg/kg/injection, schedule: Q01DX010 (sc), vehicle: Klucel (hydroxypropylcellulose) (HPC)): 58 % of control

CC[N](CC)[Ge]([CH2]C)[CH2]C.CC[N](CC)[Ge]([CH2]C)[CH2]C
T/C (dose: 12.5 mg/kg/injection, schedule: Q01DX010 (sc), vehicle: suspension in saline): 67 % of control
T/C (dose: 25.0 mg/kg/injection, schedule: Q01DX010 (sc), vehicle: suspension in saline): 89 % of control
T/C (dose: 50.0 mg/kg/injection, schedule: Q01DX010 (sc), vehicle: suspension in saline): 77 % of control

CCCCCC[C@@H](O)C/C=C\CCCCCCCC(=O)OCCO
T/C [8]: 69 % of control
T/C (dose: 600.0 mg/kg/injection, schedule: Q04DX003 (sc), vehicle: saline): 90 % of control
T/C (dose: 1200.0 mg/kg/injection, schedule: Q04DX003 (sc), vehicle: saline): 28 % of control
T/C (dose: 2400.0 mg/kg/injection, schedule: Q04DX003 (sc), vehicle: saline): 50 % of control

C=C(C)[C@]12CC(C)C34OC(/C=C\C=C\CCCCCCCCC)(O[C@@H]1[C@@H]3[C@@H]1O[C@]1(CO)[C@@H](O)[C@]1(O)C(=O)C(C)=C[C@@H]41)O2 (some centres undefined)
T/C (dose: 3.0 mg/kg/injection, schedule: Q04DX003 (sc), vehicle: distilled water + alcohol): 84 % of control
T/C (dose: 6.0 mg/kg/injection, schedule: Q04DX003 (sc), vehicle: distilled water + alcohol): 77 % of control
T/C (dose: 12.0 mg/kg/injection, schedule: Q04DX003 (sc), vehicle: distilled water + alcohol): 81 % of control

CCCCNC(C)[C@]1(O)Cc2c(O)c3c(c(O)c2[C@@H](OC2CC(N)C(O)C(C)O2)C1)C(=O)c1c(OC)cccc1C3=O (some centres undefined)
T/C (dose: 6.25 mg/kg/injection, schedule: Q01DX010 (sc), vehicle: saline): 69 % of control
T/C (dose: 12.5 mg/kg/injection, schedule: Q01DX010 (sc), vehicle: saline): 68 % of control

CC1=C(C)C(=O)O[C@@H]([C@](C)(O)[C@]2(O)CC[C@@]3(O)[C@@H]4C[C@H]5O[C@]56CC=CC(=O)[C@]6(C)[C@H]4CC[C@]23C)C1
T/C (dose: 150.0 mg/kg/injection, schedule: Q04DX003 (sc), vehicle: suspension in saline): 112 % of control
T/C (dose: 300.0 mg/kg/injection, schedule: Q04DX003 (sc), vehicle: suspension in saline): 84 % of control
T/C (dose: 600.0 mg/kg/injection, schedule: Q04DX003 (sc), vehicle: suspension in saline): 46 % of control
T/C (dose: 1200.0 mg/kg/injection, schedule: Q04DX003 (sc), vehicle: suspension in saline): 81 % of control

Cc1cc2nc3c(=O)[nH]c(=O)nc-3n(CC(O)C(O)C(O)C(O)CO)c2cc1C (centres undefined)
T/C [9]: 75 % of control
T/C [10]: 92 % of control
T/C [11]: 66 % of control

O=[N+]([O-])/C=C\c1ccc2c(c1)OCO2
T/C (dose: 12.5 mg/kg/injection, schedule: Q01DX010 (sc), vehicle: Klucel (hydroxypropylcellulose) (HPC)): 71 % of control
T/C (dose: 25.0 mg/kg/injection, schedule: Q01DX010 (sc), vehicle: Klucel (hydroxypropylcellulose) (HPC)): 94 % of control
T/C (dose: 800.0 mg/kg/injection, schedule: Q01DX010 (sc), vehicle: Klucel (hydroxypropylcellulose) (HPC)): 184 % of control

CCOC(=O)CNC(=O)Sc1ccc(C(C)(C)C)cc1
T/C [5]: 89 % of control
T/C [6]: 99 % of control
T/C [7]: 76 % of control
T/C [12]: 95 % of control

Cc1nn(CCO)c(C)c1N=[N+]([O-])c1c(C)nn(CCO)c1C
T/C [5]: 99 % of control
T/C [6]: 105 % of control
T/C [7]: 121 % of control
T/C [12]: 103 % of control

CCN(CC)CCNc1ccc(C)c2sc3ccc(O)cc3c(=O)c12
T/C [1]: 71 % of control
T/C [2]: 98 % of control
T/C [3]: 83 % of control
T/C [4]: 52 % of control

CONc1ccn(C2OC(CO)C(O)C2O)c(=O)n1 (centres undefined)
T/C [8]: 62 % of control

C1=CCOCOC1
T/C (dose: 50.0 mg/kg/injection, schedule: Q01DX010 (sc), vehicle: saline with Tween-80): 83 % of control
T/C [9]: 105 % of control
T/C [10]: 81 % of control
T/C [11]: 46 % of control
